Data as given in patent EP4628519A1, “ORGANOGERMANIUM(IV) CARBOXYLATES AND MIXTURES OF GERMANIUM CARBOXYLATES WITH ORGANIC ACID ANHYDRIDES AS CATALYSTS” (Technische Universität Graz, priority 2024, dated 2025).

What was measured:
[1] = Solubility of the germanium carboxylates in solvents (gravimetry or NMR)
[2] = Stability in water; details: result in words

## CC(=O)OC(=O)C[CH2][Ge]([O]C(C)=O)([O]C(C)=O)[O]C(C)=O [(PAA)Ge(OAc)3]
[1]; result in words
  solubility in organic solvents: good soluble

## COC(=O)C[CH2][Ge]([O]C(C)=O)([O]C(C)=O)[O]C(C)=O [(PME)Ge(OAc)3]
[1]; result in words
  solubility in organic solvents: good soluble

## CC(=O)[O][Ge]([O]C(C)=O)([O]C(C)=O)[O]C(C)=O [Ge(OAc)4, germanium(IV) tetraacetate]
[2]
  stability in water: stable
[1]; H2O, result in words
  solubility in H2O: good soluble
[1]; Solvent Benzene, Method NMR
  m(Ge(OAc)4): 2.7 g/L
[1]; Solvent Chloroform, Method NMR
  m(Ge(OAc)4): 4.8 g/L
[1]; Solvent DCM, Method Gravimetry
  m(Ge(OAc)4): 4.2 g/L
[1]; Solvent H2O, Method Gravimetry
  m(Ge(OAc)4): 170 g/L
[1]; Solvent THF, Method Gravimetry
  m(Ge(OAc)4): 4.3 g/L
[1]; Solvent Toluene, Method Gravimetry
  m(Ge(OAc)4): 2.6 g/L
[1]; in toluene, at room temperature
  solubility: 2600 µg/mL
[1]; result in words
  solubility in organic solvents: poorly soluble

## CCCCCCCCCCCC(=O)[O][Ge]([O]C(=O)CCCCCCCCCCC)([O]C(=O)CCCCCCCCCCC)[O]C(=O)CCCCCCCCCCC [Ge(OLau)4, germanium(IV) tetralaurate]
[1]; Ge(OLau)4 relative to Ge(OAc)4
  solubility, times higher: around 2 times
[1]; in benzene, determined via NMR
  solubility: 11000 µg/mL
[1]; result in words
  solubility in organic solvents: poorly soluble

## CC(=O)[O][Ge]([O]C(C)=O)([O]C(C)=O)[c]1ccccc1 [PhGe(OAc)3]
[1]; result in words
  solubility in organic solvents: good soluble
